Converted amounts (≈) assume the structure as drawn. Where two headings read alike, the source gives them in different places.
Columns and labels:
[1] = test system: Veillonella sp. HM-49; test: MIC against gut bacterium Veillonella sp.; assay type: cell-based
[2] = test system: Bifidobacterium longum; test: MIC against gut bacterium Bifidobacterium longum; assay type: cell-based; conditions: Bifidobacterium longum, Bifidobacterium longum strain HM-846, read-out: MIC
[3] = test system: MRSA (NRS70, NRS119); test: MIC against MRSA strains; assay type: cell-based, Staphylococcus aureus; conditions: Staphylococcus aureus, read-out: MIC
[4] = test system: Corynebacterium spp.; test: MIC against gut bacterium Corynebacterium spp.; assay type: cell-based; conditions: Corynebacterium, Corynebacterium spp. strain HM-784
[5] = test system: Bacteroides fragilis; test: MIC against gut bacterium Bacteroides fragilis; assay type: cell-based; conditions: Bacteroides fragilis, Bacteroides fragilis strain HM-709, read-out: MIC
[6] = test system: E. faecium NCTC7171; test: MIC against E. faecium; assay type: cell-based, Enterococcus faecium; conditions: Enterococcus faecium; E. faecium NCTC7171; Table 1; read-out: MIC
[7] = test system: Fusobacterium nucleatum; test: MIC against gut bacterium Fusobacterium nucleatum; assay type: cell-based; conditions: Fusobacterium nucleatum, Fusobacterium nucleatum strain HM-992, read-out: MIC
[8] = test system: Lactobacillus reuteri; test: MIC against gut bacterium Lactobacillus reuteri; assay type: cell-based
[9] = test system: Lactobacillus gasseri; test: MIC against gut bacterium Lactobacillus gasseri; assay type: cell-based
[10] = test system: S. aureus ATCC29213; test: MIC against MSSA; assay type: cell-based, Staphylococcus aureus; conditions: Staphylococcus aureus; S. aureus ATCC29213; Table 1; read-out: MIC
[11] = test system: C. difficile; test: MIC by broth microdilution against C. difficile strains; assay type: cell-based, Clostridioides difficile; conditions: Clostridioides difficile, read-out: MIC

MIC ([1]; SP.HM49, Veillonella sp. HM-49, Table 1, read-out: MIC): 2 µg/mL (≈ 11.7 µM) | MIC ([1]; Veillonella sp. strain HM-49, Table 7): 2 µg/mL (≈ 11.7 µM) | MIC ([2]; Table 1): 0.5 µg/mL (≈ 2.92 µM) | MIC ([2]; Table 7): 1 µg/mL (≈ 5.84 µM) | MIC ([3]; MRSA NRS70, Table 1): > 128 µg/mL | MIC ([3]; MRSA NRS70, Table 7): > 128 µg/mL | MIC ([3]; MRSA NRS119, Table 1): > 128 µg/mL | MIC ([4]; Table 1): > 32 µg/mL | MIC ([4]; Table 7): > 32 µg/mL | MIC ([5]; Table 1): 0.5 µg/mL (≈ 2.92 µM) | MIC ([5]; Table 7): 1 µg/mL (≈ 5.84 µM) | MIC [6]: > 128 µg/mL | MIC ([7]; Table 1): 2 µg/mL (≈ 11.7 µM) | MIC ([7]; Table 7): 2 µg/mL (≈ 11.7 µM) | MIC ([8]; Lactobacillus reuteri strain HM-102, Table 7): >32 µg/mL | MIC ([8]; Limosilactobacillus reuteri, Lactobacillus reuter strain HM-102, Table 1, read-out: MIC): > 32 µg/mL | MIC ([9]; Lactobacillus gasseri strain HM-644, Table 7): >32 µg/mL | MIC ([9]; Lactobacillus gasseri, Lactobacillus gasser strain HM-644, Table 1, read-out: MIC): > 32 µg/mL | MIC [10]: > 128 µg/mL | MIC ([11]; ATCC43255, C. difficile ATCC43255 (TcdA+, TcdB+), Table 1): 0.25 µg/mL (≈ 1.46 µM) | MIC ([11]; ATCC43255, C. difficile ATCC43255, Table 7): 0.25 µg/mL (≈ 1.46 µM) | MIC ([11]; ATCC43255, C. difficile ATCC43255, Table 9): 0.25 µg/mL (≈ 1.46 µM) | MIC ([11]; BAA1803, C. difficile BAA-1803, Table 7): 0.5 µg/mL (≈ 2.92 µM) | MIC ([11]; BAA1803, C. difficile BAA-1803, Table 9): 0.5 µg/mL (≈ 2.92 µM) | MIC ([11]; BAA1804, C. difficile BAA-1804, Table 7): 0.25 µg/mL (≈ 1.46 µM) | MIC ([11]; BAA1804, C. difficile BAA-1804, Table 9): 0.25 µg/mL (≈ 1.46 µM) | MIC ([11]; BAA1812, C. difficile BAA-1812, Table 7): 0.25 µg/mL (≈ 1.46 µM) | MIC ([11]; BAA1812, C. difficile BAA-1812, Table 9): 0.25 µg/mL (≈ 1.46 µM) | MIC ([11]; BAA1814, C. difficile BAA-1814, Table 7): 0.25 µg/mL (≈ 1.46 µM) | MIC ([11]; BAA1814, C. difficile BAA-1814, Table 9): 0.25 µg/mL (≈ 1.46 µM) | MIC ([11]; BAA1870, C. difficile BAA-1870 (NAP1, ribotype 27), Table 1): 0.5 µg/mL (≈ 2.92 µM) | MIC ([11]; BAA1870, C. difficile BAA-1870, Table 7): 0.5 µg/mL (≈ 2.92 µM) | MIC ([11]; BAA1870, C. difficile BAA-1870, Table 9): 0.5 µg/mL (≈ 2.92 µM) | MIC ([11]; C. difficile 23691 (VR, vancomycin-resistant), Table 7): 0.5 µg/mL (≈ 2.92 µM) | MIC ([11]; C. difficile 23691, clinical isolate resistant to VAN, Table 1): 0.5 µg/mL (≈ 2.92 µM) | MIC ([11]; C. difficile 23691, Table 9): 0.5 µg/mL (≈ 2.92 µM) | MIC ([11]; C. difficile 23828 (FR, fidaxomicin-resistant), Table 7): 0.5 µg/mL (≈ 2.92 µM) | MIC ([11]; C. difficile 23828, clinical isolate resistant to FDX, Table 1): 0.5 µg/mL (≈ 2.92 µM) | MIC ([11]; C. difficile 23828, Table 9): 0.5 µg/mL (≈ 2.92 µM) | MIC ([11]; C. difficile 24531 (VR, vancomycin-resistant), Table 7): 0.5 µg/mL (≈ 2.92 µM) | MIC ([11]; C. difficile 24531, Table 9): 0.5 µg/mL (≈ 2.92 µM) | MIC ([11]; C. difficile 24923 (VR, vancomycin-resistant), Table 7): 0.25 µg/mL (≈ 1.46 µM) | MIC ([11]; C. difficile 24923, Table 9): 0.25 µg/mL (≈ 1.46 µM) | MIC ([11]; C. difficile 26675 (MR, metronidazole-resistant), Table 7): 4 µg/mL (≈ 23.4 µM) | MIC ([11]; C. difficile 26675, clinical isolate resistant to MTZ, Table 1): 4 µg/mL (≈ 23.4 µM) | MIC ([11]; C. difficile 26675, Table 9): 4 µg/mL (≈ 23.4 µM) | MIC ([11]; C. difficile 27081 (FR, fidaxomicin-resistant), Table 7): 0.5 µg/mL (≈ 2.92 µM) | MIC ([11]; C. difficile 27081, Table 9): 0.5 µg/mL (≈ 2.92 µM) | MIC ([11]; C. difficile 27173 (MR, metronidazole-resistant), Table 7): 4 µg/mL (≈ 23.4 µM) | MIC ([11]; C. difficile 27173, Table 9): 4 µg/mL (≈ 23.4 µM) | MIC ([11]; C. difficile HM-88, Table 9): 0.25 µg/mL (≈ 1.46 µM) | MIC ([11]; C. difficile HM-89, Table 9): 0.25 µg/mL (≈ 1.46 µM) | MIC ([11]; C. difficile HM-745, Table 9): 0.5 µg/mL (≈ 2.92 µM) | MIC ([11]; C. difficile HM-746, Table 9): 0.25 µg/mL (≈ 1.46 µM) | MIC ([11]; C. difficile HM-747, Table 9): 0.5 µg/mL (≈ 2.92 µM) | MIC ([11]; C. difficile NR49292, Table 7): 0.25 µg/mL (≈ 1.46 µM) | MIC ([11]; C. difficile NR49292, Table 9): 0.25 µg/mL (≈ 1.46 µM) | MIC ([11]; C. difficile NR49294, Table 7): 0.25 µg/mL (≈ 1.46 µM) | MIC ([11]; C. difficile NR49294, Table 9): 0.25 µg/mL (≈ 1.46 µM) | MIC ([11]; C. difficile NR49305, Table 7): 0.25 µg/mL (≈ 1.46 µM) | MIC ([11]; C. difficile NR49305, Table 9): 0.25 µg/mL (≈ 1.46 µM) | MIC ([11]; C. difficile NR49318, Table 7): 0.25 µg/mL (≈ 1.46 µM) | MIC ([11]; C. difficile NR49318, Table 9): 0.25 µg/mL (≈ 1.46 µM) | MIC ([11]; C. difficile NR-13427, Table 9): 1 µg/mL (≈ 5.84 µM) | MIC ([11]; C. difficile NR-13428, Table 9): 1 µg/mL (≈ 5.84 µM) | MIC ([11]; C. difficile NR-13429, Table 9): 1 µg/mL (≈ 5.84 µM) | MIC ([11]; C. difficile NR-13430, Table 9): 0.5 µg/mL (≈ 2.92 µM) | MIC ([11]; C. difficile NR-13431, Table 9): 0.5 µg/mL (≈ 2.92 µM) | MIC ([11]; C. difficile NR-13433, Table 9): 0.5 µg/mL (≈ 2.92 µM) | MIC ([11]; C. difficile NR-13434, Table 9): 0.5 µg/mL (≈ 2.92 µM) | MIC ([11]; C. difficile NR-13435, Table 9): 0.5 µg/mL (≈ 2.92 µM)
SMILES: Cc1ncc([N+](=O)[O-])n1CCO [MTZ, metronidazole, reference compound]

Source: US20230271950A1, “ANTIBACTERIAL PICOLINAMIDE COMPOUNDS” (University of Notre Dame Du Lac, priority 2020, published 2023)
